The test system of experiment [1] is MSC cultures induced to become osteoblasts. Kind of experiment: Osteogenesis: mineral formation in MSC with osteoinduction media (alizarin red-S staining). The class given is cell-based, human. The source says:
Methods: Human Bone Marrow was Collected from Consenting Adult Patients undergoing either an elective primary proximal femoral total hip arthroplasty or elective primary distal femoral total knee arthroplasty (n=6, mean age 65) as a part of an IRB approved study. Human MSC were derived from the adherent fraction of cells derived from each whole bone marrow aspirate collected, while the monocyte population was collected from the non-adherent fraction of the bone marrow. The monocyte fraction was enriched through sub-culture with 100-ng/mL recombinant human macrophage colony-stimulating factor (MCSF; Wyeth). In parallel experiments described below, the femurs from 3-week (n=10) and 16-week (n=20) old male mice were collected and then the bone marrow was flushed from the femur according to the following: A 21-gauge needle was inserted into the femoral intramedular canal after the removal of the proximal and distal ends of the femur. Media was then carefully passed through the proximal end of the femur, which forced the bone marrow to pass out of the bone. Finally, the bone marrow pellet was mechanically disassociated using an 18-gauge needle and then passed through a 70-μm mesh filter. These whole bone marrow aspirates were used to generate osteoclasts. Cells were maintained in Dulbecco's Modification of Eagle's Media (DMEM) containing 10% fetal calf serum (v/v) and 1% penicillin-streptomycin-glutamine (PSG; Cellgro, Mediatech). […] The responsible IACUC committee approved all of the animal studies described in this work.
Osteogenesis: Osteogenic potential in MSC was assayed by chemically inducing mineral formation. MSC from at least three human patients were seeded at 5×10^3 cells per well and allowed to become confluent and woven prior to the addition of osteo-induction media. Induction media consisted of DMEM containing 20% FCS (v/v) and 1% PSG supplemented with 25-μg/mL of acscorbic-2-phosphate (Sigma), 100-nM dexamethasone (Sigma) and the following dosing regimen of β-glycerophosphate (BGP; Sigma): 1× media change with 5-mM BGP, 1× media change with 10-mM BGP and 1× media change with 20-mM of BGP. Met5-ligand (0-, [5-μM] 2.87-, or [50-μM] 28.7-μg; Sigma), naloxone (0-, 400-fg, 400-pg, 400-ng, 400-μg; Sigma) or naltrexone (0-, 378-fg, 378-pg, 378-ng, 378-μg; Sigma) was added as follows: 1) 1×, with the first addition of osteo-induction media, 2) 2×, with the first and second addition of osteo-induction media and 3) with each post-induction media change. […] After the appearance of mineral nodules, cells were fixed with 70% ice-cold EtOH (Sigma) and then stained using 40-mM alizarin red-S (pH 4.2, Sigma). Osteogenesis experiments were repeated at least twice for each patient.

The subject of experiment [2] is unicortical defect in mouse tibia. Kind of experiment: Opioid antagonist containing collagen implant in unicortical defect model, microCT. In kind it is in vivo, C57BL/6 mice. As to conditions: 7 days after surgery. The source says: Implantation of Opioid Antagonist Containing Collagen Implant into a Unicortical Defect Model: Male 5-week old C57BL/6 mice (n=5 per treatment group for a total of 25 total animals) were used in this study. […] Unicortical defects were surgically administered through a small incision (approximately 3-mm) made just below the knee joint, located on the medial side of the tibia just below the tibial tuberosity on the tibial crest. In 5-weeks old male mice, the physeal plate is clearly visible and the drill bit was placed approximately 1-mm below this point. The drill-bit produces a unicortical defect with dimensions 300-μm diameter×1-mm depth. […] In parallel, a separate group of animals served as non-surgical controls. Mice were euthanized 7-days after surgery, hind limbs were collected and tibias were prepared for micro-CT (μCT) analysis.
MicroCT Analysis of Unicortical Defects: High-resolution images of the tibia were acquired with μCT imaging system (μT40; Scanco Medical). Tibias were scanned at 45-keV with an isotropic voxel size of 12-μm. An analysis region was selected from axial sections to include the entire unicortical defect bounded by the endosteal cortical wall. The volume corrected bone volume (bone volume/total volume; By/Tv), trabecular number (TbN) and trabecular thickness (TbTh) were calculated using the Scanco software.

[3] abbreviates: collagen implant, 25-ng BMP2, 1-mM naltrexone or 1-mM naloxone.

Each structure is given as a SMILES string.

With `C=CCN1CC[C@]23c4c5ccc(O)c4O[C@H]2C(=O)CC[C@@]3(O)[C@H]1C5` [naloxone], the “mineral accumulation, effect against met5” value in experiment [1] (1-mM naloxone added with 5-μM or 50-μM met5 and osteoinduction media) is on record as “abrogate the anti-osteogenic effects of met5”. In addition, in experiment [1] (between 1-μM and 1-mM with osteoinduction media), the “mineral accumulation (red staining)” value was “substantially increased mineral accumulation”. Also, the mineral accumulation result in experiment [1] (continuous dosing, with every media change) was “slightly depressed”; in experiment [1] (double 'pulse' dose (2x), 1-mM, second 72-hours after the first) it was “substantial increase in mineral accumulation”; in experiment [1] (single 'pulse' dose (1x), 1-mM), “substantial increase in mineral accumulation”. The “increase in trabecular thickness relative to all other treatment groups” value in experiment [2] (1-mM naloxone with collagen implant) was “approximately 37%”. The “Bv/Tv relative to non-surgical controls” value in experiment [2] (collagen implant) is “increased relative to non-surgical controls”. Further, the “trabecular thickness (TbTh) relative to the control non-surgical group” value in experiment [2] (collagen implant) is “increased within the defect significantly”. Also, the “increase in Bv/Tv relative to BMP2 treatment group” value in experiment [2] (collagen implant, 1-mM) was 18.2%. In addition, the “increase in Bv/Tv relative to the PBS treated group” value in experiment [2] (setting [3]) came to 56.5%. In addition, the “increase in Bv/Tv relative to the surgical control group” value in experiment [2] (setting [3]) is 83.8%.

(Values after patent US12258561B2, “Compositions and methods to promote bone formation and their uses including for the treatment of cancer” (THE RESEARCH FOUNDATION FOR THE STATE UNIVERSITY OF NEW YORK, priority 2014, dated 2025).)
